Drawing on a melting point compilation (Tetko et al.; mined from patent text by program, amines drawn as free bases though some values may be those of a salt), this text covers melting point for 85 compounds.

For the compound `Nc1nc2ccccc2c2c1nc(O)n2Cc1ccccc1`, the melting point (usually the temperature of the solid-liquid transition) was above 250 °C.
Compound `CCOC(=O)N1CCc2nc(-c3ccncc3)cc(=O)n2CC1` displayed a melting point of 191 to 193 °C.
For `CN(C)CC1CN(c2ccccc2)NC1=N` (stereo not given) the value was 117 to 118 °C.
Compound `CN1CCC(NC(c2cccc(C#CCCCCN)c2)c2nc3ccccc3[nH]2)CC1` (stereo not given) registered a melting point of 79 °C.
For `FC(F)(F)C1(c2cc(Cl)cc(Cl)c2)CC(c2ccc(-n3cccn3)cc2)=NO1` (stereo not given) the value was 174 to 175 °C.
For `O=C1Nc2cnc(Nc3ccc(N4CCOCC4)cc3)nc2S/C1=C/c1ccc([N+](=O)[O-])cc1` the value was 302 to 304 °C.
In the case of `Cc1oc(-c2ccccc2)nc1CCc1noc(COc2ccccc2CC(=O)O)n1`, the melting point lay within 120 to 121 °C.
Turning to `O=C(c1ccccc1)c1cn2c3ccccc3c3cccc(c1=O)c32`, the melting point fell in the range of 158 to 160 °C.
As for `CC1(C)CC(C)(c2ccc(Oc3ccc([N+](=O)[O-])cc3)cc2)c2cc(Oc3ccc([N+](=O)[O-])cc3)ccc21` (stereo not given), the figure is 214 to 216 °C; as for `COc1cc([N+](=O)[O-])ccc1-c1ccccc1`, 71 °C.
In turn, `O=[N+]([O-])c1ccc(-n2nnnc2-c2ccccc2-c2ccc(CBr)cc2)cc1` came in with a melting point of 192 to 195 °C.
The compound `O=C(Nc1cc(F)ccc1O)c1cc(Cl)c(O)c(Cl)c1` returned a melting point of 227 to 229 °C.
As for `CN(CC1OCCO1)c1nccc(Oc2ccc(NC(=O)c3cc(F)cc(N4CCOCC4)c3)c3ccccc23)n1`, the figure is 111 to 112 °C.
As for `CC(C)(Oc1cccc(C(=O)c2ccc(C(F)(F)F)cc2)c1)C(=O)O`, the figure is 133 °C; as for `CCc1ccc(-c2coc3c(C)c(C)c(N)c(C)c23)cc1`, 68 to 69 °C; as for `CCCCOC(=O)C(NC(=O)c1cc([N+](=O)[O-])cc([N+](=O)[O-])c1)C(C)C` (stereo not given), 88 to 91 °C.
In the case of `O=S(=O)(CC(O)(CI)c1ccccc1)c1ccccc1` (stereo not given), the melting point was 98 °C.
On to `C=CCOC(=O)c1ccc(-c2ccc3cc(OCCCCC(=O)OCC)c(C45CC6CC(CC(C6)C4)C5)cc3c2)cc1`, for which the melting point is 117 to 118 °C.
Compound `CC1CNCC1NC(=O)OC(C)(C)C` (stereo not given) showed a melting point of 86.8 to 87 °C.
Take `COc1nc2ccccc2nc1NC(=S)N1CCN(c2cc(F)cc(F)c2)CC1`: the melting point lay in the range of 280 to 281 °C.
For the compound `CCOC(=O)[C@H](Cn1cc(C)c(SC#N)nc1=O)NS(=O)(=O)N(C)C`, the melting point amounted to 158 °C.
Turning to `CC(C)(C)OC(=O)NCC(=O)Oc1cc(Cl)c(Cl)cc1Cl`, the melting point lay in the range of 100 to 103 °C.
On to `CCOC(=O)C(CC)Oc1ccccc1C(C)=O` (stereo not given), for which the melting point fell in the range of 43 to 45 °C.
The compound `CCCc1cc(O)nc(C(Cl)(Cl)Cl)n1` came in with a melting point of 107 to 110 °C.
Take `Oc1ccc(-c2nnc(CCCCCCCc3ccccc3)o2)cc1`: the melting point lay in the range of 138 to 140 °C.
For `N#Cc1ccc(-c2csc(Nc3ccccc3O)n2)cc1` the value was 278 to 280 °C; for `CC1(c2ccc(Br)cc2)Cc2cc(OCC(=O)O)c(Cl)c(Cl)c2C1=O` (stereo not given), 171 to 172 °C; for `COc1ccc(OC)c(P(=O)(C(=O)c2c(C)cc(C)cc2C)C(=O)c2c(C)cc(C)cc2C)c1`, 161 °C.
As for `COc1cc(N(C)C)ccc1Nc1nc(Nc2ccc3c(c2)C(C)(C)CCC(=O)N3C)ncc1Cl`, the figure is 244 to 263 °C.
For the compound `COc1ccc(CC(=O)Nc2cccc(/C=C/c3nc(C4CCC4)cs3)c2)c(C(=O)O)c1`, the melting point is 190 to 191 °C.
For `O=C1Cc2ccccc2C(=O)N1c1ccc(Cl)cc1` the value was 178 to 180 °C; for `O=[N+]([O-])c1[nH]c(-c2c(Cl)cc(C(F)(F)F)cc2Cl)nc1Br`, 292 to 293 °C.
For `CCCCCc1ccc(-c2ccc(-c3ccc(CC)cc3)cc2F)s1` the value was 44 °C.
As for `CCOc1ccc(C2=NNCCC2)cc1OCC`, the melting point lay in the range of 77 to 78 °C.
Consider `CC(=O)OCc1c(-c2cc(Nc3cc4n(n3)CCN(C)C4)c(=O)n(C)n2)cccc1-n1ncc2cc(C(C)(C)C)cc(F)c2c1=O`, for which the melting point was 188 to 193 °C.
As to `COc1nc(SCc2ccc(F)cc2)cnc1NS(=O)(=O)c1cccc(Cl)c1Cl`, the melting point was 119 to 120 °C.
On to `O=C(c1cc(=O)c2cc3[nH]c(=O)oc3cc2[nH]1)N1CCC(Cc2ccccc2)CC1`, for which the melting point stood at 215 °C.
In turn, `Cn1nnnc1-c1ccc2oc3ncccc3c(=O)c2c1` had a melting point of 248 °C.
`CCOC(=O)[C@@H](O)[C@@H]1OC(=O)c2cc(OC)c(OC)cc21` had a melting point of 144 to 146 °C.
In turn, `CC(C)(C)[C@@H](CO)NC(=O)[C@@H](CC(=O)O)n1ccc(-c2ccc(-c3ccncc3)cc2)c1` displayed a melting point of 192 to 194 °C.
For `CC(=O)NCC1CC1c1ccc(Cl)c2nn(C)cc12` (stereo not given) the value was 153 to 155 °C; for `CC(C)CNS(=O)(=O)c1ccc2c(c1)C=C(C(=O)O)C(C(F)(F)F)O2` (stereo not given), 191 to 192 °C; for `C=CCNc1nc(NNC(C)(C)C)c2scc(C)c2n1`, 105 to 107 °C.
As for `CCOC(=O)N(N)C(=O)c1ccccc1O`, the melting point came to 126 °C.
Compound `CC(=O)n1cc(C2=C(c3cn(C)c4ccccc34)C(=O)NC2=O)c2ccccc21` displayed a melting point of 252 to 253 °C.
`COCCN(C)c1cc2ncc(C#N)c(C)c2cc1OC` displayed a melting point of 90 to 96 °C.
Consider `CS(=O)(=O)c1ccc(C(CC2CCCC2)C(=O)Nc2cnccn2)cc1[N+](=O)[O-]` (stereo not given), for which the melting point was in the range of 104 to 108 °C.
In the case of `OCC1OC(n2c(Br)nc3c(NCc4ccccc4)ncnc32)C(O)C1O` (stereo not given), the melting point lay within 96 to 98 °C.
With `Cc1ccc(CSc2nc3cc4c(cc3[nH]2)OCO4)nc1`, the melting point lay within 187 to 188 °C.
Take `CC(=O)OC(CF)c1ccccc1S(N)(=O)=O` (stereo not given): the melting point was 122 to 124 °C.
For the compound `C[C@@H](N(CC(=O)O)C(=O)c1ccc(OCC(F)(F)C(F)F)cc1)[C@](O)(Cn1cncn1)c1ccc(Cl)cc1Cl` (relative stereo), the melting point was 192 to 193 °C.
`c1ccc(C2CSC(c3ccccc3)N2)cc1` (mixture of isomers) returned a melting point of 120 °C.
Compound `NC(=O)Cc1c(Cl)cnc2c(NC(=O)c3c(Cl)cccc3Cl)cccc12` registered a melting point above 300 °C.
For `CCOC(=O)c1cnc2c(SC(=O)N(C)C)nccn2c1=O` the value was 125 to 128 °C; for `CC(=O)OC1CSC(Oc2cccnc2-c2ccco2)C(OC(C)=O)C1OC(C)=O` (stereo not given), 160 °C.
The compound `CCN(c1ccc(Cl)cc1[N+](=O)[O-])S(=O)(=O)c1ccc(Cl)cc1` came in with a melting point of 122 to 123 °C.
As for `COCCOCC(=O)Nc1c([N+](=O)[O-])cnn1-c1c(Cl)cc(C(F)(F)F)cc1Cl`, the melting point lay in the range of 103 to 105 °C.
For the compound `CCOc1nc2ccccc2nc1N(C)C(=O)N1CCN(c2cc(Cl)cc(Cl)c2)CC1`, the melting point lay within 129 to 131 °C.
For `COc1ccc2cc(C(O)C(C)N3CCC(NC(=O)c4ccccc4)CC3)ccc2c1` (stereo not given) the value was 175 to 177 °C; for `COc1cccc(OC)c1-c1cc(C(=O)NC2(C(=O)O)C3CC4CC(C3)CC2C4)nn1-c1ccc(C#N)c2ccccc12` (stereo not given), 290 °C.
As for `CCc1c(C)nc2n1N=C(c1ccc(N)cc1)c1cc3c(cc1C2)OCO3`, the melting point was 227 to 228 °C.
On to `COc1ccc(CC(=O)c2c(O)c3cccnc3n(-c3ccccc3)c2=O)cc1OC`, for which the melting point lay in the range of 161 to 163 °C.
`Clc1cc(CC(Cl)Cl)cnc1Cl` yielded a melting point of 89 to 90 °C.
Take `COc1c(Cl)ccc(-c2nc(C(=O)NOC3CCCCO3)c(Cl)c(N)c2F)c1F` (stereo not given): the melting point lay within 177 to 180 °C.
`O=Cc1c[nH]c2cccc(O)c12`: the melting point fell in the range of 196 to 200 °C.
As for `O=C(O)c1cccc(-c2cccc([N+](=O)[O-])c2)c1`, the figure is 271 to 272 °C; as for `COc1cc(C(C)=O)c(F)cc1Cl`, 96.5 to 98.5 °C.
On to `CN(C(=O)C(F)(F)F)N1CCc2ccccc2C(Oc2ccc(C(F)(F)F)cc2)C1` (stereo not given), for which the melting point was in the range of 210 to 212 °C.
For the compound `COc1ccc(N2CN(CC(=O)O)C(=O)C23CCN(C(=O)OC(C)(C)C)CC3)cc1`, the melting point lay in the range of 173 to 174 °C.
`O=[N+]([O-])c1ccc(Oc2ccc3ccc(Oc4ccc([N+](=O)[O-])c(O)c4)cc3c2)cc1O` came in with a melting point of 218 to 220 °C.
As for `Cc1cc(OS(=O)(=O)c2c(Cl)cccc2Cl)cc2c(C3CCN(C)CC3)c[nH]c12`, the melting point was 179 °C.
On to `CC(C)(C)OC(=O)N(CC#N)CCN(CC#N)C(=O)OC(C)(C)C`, for which the melting point fell in the range of 112 to 113 °C.
`CCOC(=O)/C(CCO)=C(\c1ccc(Cl)cc1)c1ccc(S(C)(=O)=O)cc1` gave a melting point of 128 °C.
For `CCCCCCCCCCCCNC(=O)CSCc1cc(C(C)(C)C)c(O)c(C(C)(C)C)c1` the value was 43 to 46 °C.
In the case of `CC(C)(C)OC(=O)NC[C@H]1CC[C@H](COS(C)(=O)=O)CC1`, the melting point lay within 105 to 107 °C.
Take `N#CCCCCCC(=NO)c1ccc(Cl)cc1`: the melting point was in the range of 58 to 59 °C.
On to `CCOP(=O)(/C=C/c1ccc2cc(NC(=O)C(NC(=O)OC(C)(C)C)C(C)(C)C)cc(-c3cccc4ccccc34)c2n1)OCC` (stereo not given), for which the melting point was 249 to 250 °C.
For `Cc1nc(N2CCCC(Cc3ccc(C(F)(F)F)cc3)C2=O)sc1C(=O)NCc1ccccc1` (stereo not given) the value was 217 to 218 °C; for `CC[C@H](C)[C@H](NC(=O)O[C@@H](CC(C)C)C(=O)O)C(=O)NC(C)C`, 179 to 180 °C.
The compound `CCCCCCCCCCOC(=O)c1cc(C(=O)OCCCCCCCCCC)cc([N+](=O)[O-])c1` displayed a melting point of 48 to 50 °C.
As for `CN1C(=S)C(C)(C)N=C1SCc1ccccc1N(C)C`, the melting point fell in the range of 76 to 78 °C.
In turn, `CSC(=O)C(=O)c1ccc(NC=O)nc1` registered a melting point of 152 to 154 °C.
For `O=C1CCC(n2cnc(-c3ccc(F)cc3)c2-c2ccnc(Nc3ccccc3)n2)CC1` the value was 205 to 207 °C; for `CCC[C@H]1CC[C@H]([C@H]2CC[C@H](c3ccc(C(C)=O)cc3)CC2)CC1`, 81 °C.
Turning to `Cc1cc2ccc(Cl)c(Cl)c2[nH]1`, the melting point lay in the range of 70 to 71 °C.
